This is an account of results in patent US20250368606A1, “CRYSTALLINE FORMS AND SALT FORMS OF A KINASE INHIBITOR” (Exelixis, Inc., priority 2021, published 2025).

Format in all cases: physicochemical
The nature of data set [1]: Visual (aqueous) solubility estimation. The conditions noted are these: water, thermodynamic from solid, visual observation. As to the method: Solubility Estimation: Aliquots of various solvents were added to measured amounts of Compound 1 with agitation (typically sonication) at stated temperatures until complete dissolution was achieved, as judged by visual observation.
Aqueous Solubility Estimation: Aliquots of water were added to measured amounts of various Compound 1 salts with sonication.

Data set [2] is described as follows: Physical stability (form conversion) of solid forms.
Data set [3] can be described thus: Desolvation / drying attempts at elevated temperature, solids analysed by XRPD. As to the method:
Vacuum Oven Desolvation: Salts of Compound 1 that were determined to be solvates by various analytical methods underwent an attempted desolvation. […] Samples were analyzed by XRPD and/or TGA for determination of desolvation success.

[4] abbreviates: dried under vacuum at 80° C. for 1 day.

Consider `CNC(=O)c1cc2c(Oc3ccc(NC(=O)C4(C(=O)Nc5ccc(F)cc5)CC4)cc3)ccnc2cc1OC` [Amorphous Compound 1, N-(4-fluorophenyl)-N-(4-((7-methoxy-6-(methylcarbamoyl)quinolin-4-yl)oxy)phenyl)cyclopropane-1,1-dicarboxamide], for which the solubility (commonly the concentration that dissolves in the medium under given conditions) in data set [1] is less than 250 µg/mL. For the same molecule, the “physical stability: resulting form on exposure to elevated temperature” value in data set [2] (elevated temperature) is “Material K”. The “physical stability: resulting form on contact with diethyl ether” value in data set [2] (immediately on contact with diethyl ether) is “crystallized to a mixture of Forms X and K”.

In the case of `CNC(=O)c1cc2c(Oc3ccc(NC(=O)C4(C(=O)Nc5ccc(F)cc5)CC4)cc3)ccnc2cc1OC` [Compound 1 Form S], the “physical stability of the solvate” value in data set [2] (likely NMP solvate, only obtained as a mixture with Form A) is on record as “readily converts to Form A”.

On to `CNC(=O)c1cc2c(Oc3ccc(NC(=O)C4(C(=O)Nc5ccc(F)cc5)CC4)cc3)ccnc2cc1OC` [Compound 1 Hemifumarate Form C], for which the “form of post-drying solids (XRPD)” value in data set [3] (setting [4]) was “a mixture of Hemifumarate Form B, with trace Compound 1 free base Form A, and a few additional peaks”.

For `CNC(=O)c1cc2c(Oc3ccc(NC(=O)C4(C(=O)Nc5ccc(F)cc5)CC4)cc3)ccnc2cc1OC` [Compound 1 Hemifumarate Form D], the “form of post-drying solids (XRPD)” value in data set [3] (setting [4]) is “a mixture of Compound 1 free base Form A and Compound 1 Hemifumarate Form B”.

`CNC(=O)c1cc2c(Oc3ccc(NC(=O)C4(C(=O)Nc5ccc(F)cc5)CC4)cc3)ccnc2cc1OC` [Form R]: the “XRPD Results after desolvation attempt” value in data set [3] (105-120° C. vacuum, 2 hours) is reported as “Form K”; in data set [3] (110° C., 1 hour) it was “Form K + X”.

Take `CNC(=O)c1cc2c(Oc3ccc(NC(=O)C4(C(=O)Nc5ccc(F)cc5)CC4)cc3)ccnc2cc1OC` [Form U]: the “XRPD Results after desolvation attempt” value is on record as “Form T + Form U” in data set [3] (60° C.-72° C. vacuum 6 days); “Form U + Form T” in data set [3] (70° C. vacuum 3 days); “Form T (blue grey)” in data set [3] (105-120° C. vacuum, 2 hours); “Form T + Form A (grey brown)” in data set [3] (170° C. 15 minutes).

Regarding `CNC(=O)c1cc2c(Oc3ccc(NC(=O)C4(C(=O)Nc5ccc(F)cc5)CC4)cc3)ccnc2cc1OC` [Hemifumarate Form E], the “form of post-drying solids (XRPD)” value in data set [3] (dried under vacuum at 72° C. for 1 day) is reported as “unique disordered crystalline pattern”.

Turning to `CNC(=O)c1cc2c(Oc3ccc(NC(=O)C4(C(=O)Nc5ccc(F)cc5)CC4)cc3)ccnc2cc1OC` [Hemifumarate Form F], the “form of post-drying solids (XRPD)” value in data set [3] (post-drying sample further dried under vacuum at 88° C. for 1 day) was “maintained the same form”.

As to `CNC(=O)c1cc2c(Oc3ccc(NC(=O)C4(C(=O)Nc5ccc(F)cc5)CC4)cc3)ccnc2cc1OC` [Napsylate Form A], the “physical stability under drying conditions (XRPD)” value in data set [3] (48° C. under vacuum for approximately 3 days) is “XRPD peaks attributed to Napsylate Form B increased in intensity”; in data set [3] (120° C. for 30 minutes), “A mixture of Napsylate Form B and Form C”.
